In patent US20250319095A1, “USE OF BENZO[…] INCREASE SENSITIVITY TO […] A CHRONIC SSRI REGIMEN” (Compass Pathfinder Limited, priority 2020, published 2025):
Converted amounts (≈) assume the structure as drawn.

Legend:
male C57BL/6J mice = test: Psilocybin head twitch response with chronic diazepam pre-treatment; format: in vivo
Method: Sixty-two (60 plus 2 spares;) male C57BL/6J mice (20-25 g upon arrival) were purchased from Charles River UK. Animals were group housed (in 3 s and a pair) in polypropylene cages. Mice were maintained on a normal phase 12 h light-dark cycle (lights on: 07:00-19:00 h) with free access to standard rodent maintenance diet (standard pelleted diet Envigo 2018) and filtered tap water. The holding room was maintained at a temperature of 21±4° C. and relative humidity was 55±15% with prolonged periods below 40% RH or above 70% RH avoided as detailed in the UK Code of Practice. As a refinement, each cage contained sawdust, sizzle nest, a red house, Perspex tunnel, plastic chew stick and a nestlet so that the mice can make nests and facilitate warmth. Mice were weighed upon arrival and provided with wet mash overnight. The following morning, mice were weighed, and the mash removed.
Mice were weighed and allocated into 6 treatment groups by a statistician (as per Table 20 below). […] For groups A-D animals were placed individually in clean cages with a light dusting of sawdust immediately following psilocybin administration (0.3 mg/kg, s.c) for head twitch response assessment. Head twitches were counted by a trained observer over a 30 minute period.
Statistical significance was tested using two-way analysis of variance with treatment and observer as cofactors (Table 21 below).

Mouse [1] = test: Ethovision activity to psilocybin after acute diazepam pretreatment; format: in vivo
Method: (§1) Animals were dosed as detailed by Table 10 below and were placed in a clean cage. The number of head twitches and wet dog shakes were then counted by a scorer for 30 minutes after dosing. The timings of head twitches and wet dog shakes were recorded by a computer program. The experiment was carried out over three days. Scorers were blinded to treatment group.
Ethovision data was organized into 5-minute and 15-minute time periods and 0-30 minutes for each animal. Ethovision scores were log transformed, however Shapiro-Wilk tests were significant for many of the 5-minute and 15-minute time windows. Therefore, robust regression was used to analyze the Ethovision data.
(§2) Number of head twitches over each 5-minute period and each 15-minute period and the total for 0-30 minutes were square-root transformed and analyzed by three way ANOVA with treatment, day, and scorer as factors. Ethovision data was analyzed by robust regression using M estimation, Huber weighting, using the default parameter C=1.345. The model used treatment, day, and scorer as factors.
(§3) P<0.05 was the level accepted for statistical difference. The chance of a false positive is 5% for each dose for each time. All tests were carried out as two-sided tests.

Mouse [2] = test: Head twitch response to psilocybin after acute diazepam pretreatment; format: in vivo
Method: as §1, §2, §3

[3] = Solubility of psilocybin in water
[4] = 0 to 5 mins, Psilocybin 0.3 mg/kg sc 1 hr post Diazepam 4 mg/kg ip or Saline ip
[5] = 0 to 5 mins, Psilocybin 1 mg/kg sc 1 hr post Diazepam 4 mg/kg ip or Saline ip
[6] = 0 to 5 mins, Psilocybin 3 mg/kg sc 1 hr post Diazepam 4 mg/kg ip or Saline ip
[7] = 0 to 15 mins, Psilocybin 0.3 mg/kg sc 1 hr post Diazepam 4 mg/kg ip or Saline ip
[8] = 0 to 15 mins, Psilocybin 1 mg/kg sc 1 hr post Diazepam 4 mg/kg ip or Saline ip
[9] = 0 to 15 mins, Psilocybin 3 mg/kg sc 1 hr post Diazepam 4 mg/kg ip or Saline ip
[10] = 0 to 30 mins (total), Psilocybin 0.3 mg/kg sc 1 hr post Diazepam 4 mg/kg ip or Saline ip
[11] = 0 to 30 mins (total), Psilocybin 1 mg/kg sc 1 hr post Diazepam 4 mg/kg ip or Saline ip
[12] = 0 to 30 mins (total), Psilocybin 3 mg/kg sc 1 hr post Diazepam 4 mg/kg ip or Saline ip
[13] = 5 to 10 mins, Psilocybin 0.3 mg/kg sc 1 hr post Diazepam 4 mg/kg ip or Saline ip
[14] = 5 to 10 mins, Psilocybin 1 mg/kg sc 1 hr post Diazepam 4 mg/kg ip or Saline ip
[15] = 5 to 10 mins, Psilocybin 3 mg/kg sc 1 hr post Diazepam 4 mg/kg ip or Saline ip
[16] = 10 to 15 mins, Psilocybin 0.3 mg/kg sc 1 hr post Diazepam 4 mg/kg ip or Saline ip
[17] = 10 to 15 mins, Psilocybin 1 mg/kg sc 1 hr post Diazepam 4 mg/kg ip or Saline ip
[18] = 10 to 15 mins, Psilocybin 3 mg/kg sc 1 hr post Diazepam 4 mg/kg ip or Saline ip
[19] = 15 to 20 mins, Psilocybin 0.3 mg/kg sc 1 hr post Diazepam 4 mg/kg ip or Saline ip
[20] = 15 to 20 mins, Psilocybin 1 mg/kg sc 1 hr post Diazepam 4 mg/kg ip or Saline ip
[21] = 15 to 20 mins, Psilocybin 3 mg/kg sc 1 hr post Diazepam 4 mg/kg ip or Saline ip
[22] = 15 to 30 mins, Psilocybin 0.3 mg/kg sc 1 hr post Diazepam 4 mg/kg ip or Saline ip
[23] = 15 to 30 mins, Psilocybin 1 mg/kg sc 1 hr post Diazepam 4 mg/kg ip or Saline ip
[24] = 15 to 30 mins, Psilocybin 3 mg/kg sc 1 hr post Diazepam 4 mg/kg ip or Saline ip
[25] = 20 to 25 mins, Psilocybin 0.3 mg/kg sc 1 hr post Diazepam 4 mg/kg ip or Saline ip
[26] = 20 to 25 mins, Psilocybin 1 mg/kg sc 1 hr post Diazepam 4 mg/kg ip or Saline ip
[27] = 20 to 25 mins, Psilocybin 3 mg/kg sc 1 hr post Diazepam 4 mg/kg ip or Saline ip
[28] = 25 to 30 mins, Psilocybin 0.3 mg/kg sc 1 hr post Diazepam 4 mg/kg ip or Saline ip
[29] = 25 to 30 mins, Psilocybin 1 mg/kg sc 1 hr post Diazepam 4 mg/kg ip or Saline ip
[30] = 25 to 30 mins, Psilocybin 3 mg/kg sc 1 hr post Diazepam 4 mg/kg ip or Saline ip

Compound: CN(C)CCc1c[nH]c2cccc(OP(=O)(O)O)c12 [Psilocybin, psilocybin]
- Mean head twitch responses (male C57BL/6J mice; 0-5 mins, Psilocybin 0.3 mg/kg sc 2 hr post Diazepam 1.25 mg/kg ip bid 14 days or Saline ip bid): 0.76
- Mean head twitch responses (male C57BL/6J mice; 0-5 mins, Psilocybin 0.3 mg/kg sc 24 hr post Diazepam 1.25 mg/kg ip bid 14 days or Saline ip bid): 1.81
- Mean head twitch responses (male C57BL/6J mice; 0-15 mins, Psilocybin 0.3 mg/kg sc 2 hr post Diazepam 1.25 mg/kg ip bid 14 days or Saline ip bid): 2.93
- Mean head twitch responses (male C57BL/6J mice; 0-15 mins, Psilocybin 0.3 mg/kg sc 24 hr post Diazepam 1.25 mg/kg ip bid 14 days or Saline ip bid): 5.65
- Mean head twitch responses (male C57BL/6J mice; 0-30 mins, Psilocybin 0.3 mg/kg sc 2 hr post Diazepam 1.25 mg/kg ip bid 14 days or Saline ip bid): 5.78
- Mean head twitch responses (male C57BL/6J mice; 0-30 mins, Psilocybin 0.3 mg/kg sc 24 hr post Diazepam 1.25 mg/kg ip bid 14 days or Saline ip bid): 9.70
- Mean head twitch responses (male C57BL/6J mice; 5-10 mins, Psilocybin 0.3 mg/kg sc 2 hr post Diazepam 1.25 mg/kg ip bid 14 days or Saline ip bid): 0.81
- Mean head twitch responses (male C57BL/6J mice; 5-10 mins, Psilocybin 0.3 mg/kg sc 24 hr post Diazepam 1.25 mg/kg ip bid 14 days or Saline ip bid): 2.25
- Mean head twitch responses (male C57BL/6J mice; 10-15 mins, Psilocybin 0.3 mg/kg sc 2 hr post Diazepam 1.25 mg/kg ip bid 14 days or Saline ip bid): 0.81
- Mean head twitch responses (male C57BL/6J mice; 10-15 mins, Psilocybin 0.3 mg/kg sc 24 hr post Diazepam 1.25 mg/kg ip bid 14 days or Saline ip bid): 1.04
- Mean head twitch responses (male C57BL/6J mice; 15-20 mins, Psilocybin 0.3 mg/kg sc 2 hr post Diazepam 1.25 mg/kg ip bid 14 days or Saline ip bid): 0.60
- Mean head twitch responses (male C57BL/6J mice; 15-20 mins, Psilocybin 0.3 mg/kg sc 24 hr post Diazepam 1.25 mg/kg ip bid 14 days or Saline ip bid): 1.70
- Mean head twitch responses (male C57BL/6J mice; 15-30 mins, Psilocybin 0.3 mg/kg sc 2 hr post Diazepam 1.25 mg/kg ip bid 14 days or Saline ip bid): 2.35
- Mean head twitch responses (male C57BL/6J mice; 15-30 mins, Psilocybin 0.3 mg/kg sc 24 hr post Diazepam 1.25 mg/kg ip bid 14 days or Saline ip bid): 3.60
- Mean head twitch responses (male C57BL/6J mice; 20-25 mins, Psilocybin 0.3 mg/kg sc 2 hr post Diazepam 1.25 mg/kg ip bid 14 days or Saline ip bid): 0.32
- Mean head twitch responses (male C57BL/6J mice; 20-25 mins, Psilocybin 0.3 mg/kg sc 24 hr post Diazepam 1.25 mg/kg ip bid 14 days or Saline ip bid): 0.43
- Mean head twitch responses (male C57BL/6J mice; 25-30 mins, Psilocybin 0.3 mg/kg sc 2 hr post Diazepam 1.25 mg/kg ip bid 14 days or Saline ip bid): 0.80
- Mean head twitch responses (male C57BL/6J mice; 25-30 mins, Psilocybin 0.3 mg/kg sc 24 hr post Diazepam 1.25 mg/kg ip bid 14 days or Saline ip bid): 1.16
- Ethovision data Mean (Mouse [1]; [4]): 801.48
- Ethovision data Mean (Mouse [1]; [5]): 826.56
- Ethovision data Mean (Mouse [1]; [6]): 785.38
- Ethovision data Mean (Mouse [1]; [7]): 2149.79
- Ethovision data Mean (Mouse [1]; [8]): 2025.10
- Ethovision data Mean (Mouse [1]; [9]): 1667.64
- Ethovision data Mean (Mouse [1]; [10]): 3782.48
- Ethovision data Mean (Mouse [1]; [11]): 3368.87
- Ethovision data Mean (Mouse [1]; [12]): 2403.79
- Ethovision data Mean (Mouse [1]; [13]): 704.55
- Ethovision data Mean (Mouse [1]; [14]): 665.97
- Ethovision data Mean (Mouse [1]; [15]): 516.00
- Ethovision data Mean (Mouse [1]; [16]): 641.76
- Ethovision data Mean (Mouse [1]; [17]): 519.27
- Ethovision data Mean (Mouse [1]; [18]): 353.03
- Ethovision data Mean (Mouse [1]; [19]): 517.51
- Ethovision data Mean (Mouse [1]; [20]): 430.23
- Ethovision data Mean (Mouse [1]; [21]): 271.26
- Ethovision data Mean (Mouse [1]; [22]): 1630.42
- Ethovision data Mean (Mouse [1]; [23]): 1337.33
- Ethovision data Mean (Mouse [1]; [24]): 719.96
- Ethovision data Mean (Mouse [1]; [25]): 519.96
- Ethovision data Mean (Mouse [1]; [26]): 444.11
- Ethovision data Mean (Mouse [1]; [27]): 208.90
- Ethovision data Mean (Mouse [1]; [28]): 551.06
- Ethovision data Mean (Mouse [1]; [29]): 430.12
- Ethovision data Mean (Mouse [1]; [30]): 213.04
- Head twitches Mean (Mouse [2]; [4]): 1.84
- Head twitches Mean (Mouse [2]; [5]): 2.42
- Head twitches Mean (Mouse [2]; [6]): 5.34
- Head twitches Mean (Mouse [2]; [7]): 5.57
- Head twitches Mean (Mouse [2]; [8]): 6.32
- Head twitches Mean (Mouse [2]; [9]): 12.4
- Head twitches Mean (Mouse [2]; [10]): 8.38
- Head twitches Mean (Mouse [2]; [11]): 8.98
- Head twitches Mean (Mouse [2]; [12]): 15.66
- Head twitches Mean (Mouse [2]; [13]): 1.64
- Head twitches Mean (Mouse [2]; [14]): 1.39
- Head twitches Mean (Mouse [2]; [15]): 4.67
- Head twitches Mean (Mouse [2]; [16]): 1.36
- Head twitches Mean (Mouse [2]; [17]): 1.44
- Head twitches Mean (Mouse [2]; [18]): 2.07
- Head twitches Mean (Mouse [2]; [19]): 0.93
- Head twitches Mean (Mouse [2]; [20]): 1.35
- Head twitches Mean (Mouse [2]; [21]): 1.07
- Head twitches Mean (Mouse [2]; [22]): 2.57
- Head twitches Mean (Mouse [2]; [23]): 2.39
- Head twitches Mean (Mouse [2]; [24]): 2.5
- Head twitches Mean (Mouse [2]; [25]): 0.39
- Head twitches Mean (Mouse [2]; [26]): 0.43
- Head twitches Mean (Mouse [2]; [27]): 0.66
- Head twitches Mean (Mouse [2]; [28]): 0.59
- Head twitches Mean (Mouse [2]; [29]): 0.15
- Head twitches Mean (Mouse [2]; [30]): 0.34
- solubility [3]: ~15 mg/mL (≈ 52.8 mM)
